Measurements as given in publication PMC9511441, “Semisynthetic teicoplanin derivatives with dual antimicrobial activity against SARS-CoV-2 and multiresistant bacteria” (Scientific Reports, 2022).
“Also recorded” adds a separate entry of the source. Read-outs that look alike come from different tables or passages of the source.

Tests used:
[1] = test system: SARS-CoV-2; experiment: microbe, parasite or virus in culture; format: cell-based; conditions: for EC50: Calu-3 cells, three days, XTT, read-out: EC50, CPE reduction, SARS-CoV-2 in Calu-3 cells
[2] = test system: HEL cells; experiment: Cytotoxicity in mock-infected HEL cells (MTS); format: cell-based, human; conditions: mock-infected HEL cells, MTS, mean of 2–3 tests
[3] = biological target: SARS-CoV-2 3CL^Pro (Severe acute respiratory syndrome coronavirus 2, UniProt P0DTD1); experiment: biochemical; format: biochemical
[4] = test system: Klebsiella pneumoniae ST258 clone K 160/09; experiment: MIC against Gram-negative strain; conditions: Klebsiella pneumoniae ST258 clone K 160/09
[5] = test system: Escherichia coli ATCC 25218; experiment: MIC against Gram-negative strain; conditions: ATCC25218
[6] = test system: SARS-CoV-2; experiment: microbe, parasite or virus in culture; format: cell-based; conditions: for EC50: Vero E6 cells, three days, XTT, read-out: EC50, CPE reduction, SARS-CoV-2 in Vero E6 cells
[7] = test system: SARS-CoV-2 pseudovirus; experiment: microbe, parasite or virus in culture; format: cell-based; conditions: for EC50: A549-AT cells (ACE2 and TMPRSS2), luciferase signal, mean ± SEM of 3 tests, read-out: EC50, inhibition of SARS-CoV-2 pseudovirus entry in A549-AT cells; for Inhibition of pseudovirus entry in A549-AT cells (in words): TMPRSS2-mediated uptake
[8] = test system: S. haemolyticus; experiment: MIC, broth microdilution; format: cell-based
[9] = test system: S.pyogenes; experiment: MIC, broth microdilution; format: cell-based
[10] = test system: S. aureus; experiment: MIC, broth microdilution; format: cell-based
[11] = test system: E. faecalis; experiment: MIC, broth microdilution; format: cell-based
[12] = test system: Pseudomonas aeruginosa ATCC 27853; experiment: MIC against Gram-negative strain; conditions: ATCC27853
[13] = test system: S. epidermidis; experiment: microbe, parasite or virus in culture; format: cell-based
[14] = test system: E. faecium; experiment: microbe, parasite or virus in culture; format: cell-based
[15] = test system: HCoV-229E; experiment: CPE reduction assay, HCoV-229E in HEL cells; format: cell-based; conditions: for EC50: MTS, mean of 2–3 tests
[16] = test system: SARS-CoV-2 pseudovirus; experiment: microbe, parasite or virus in culture; format: cell-based; conditions: for EC50: Vero cells, luciferase signal, mean ± SEM of 3 tests, read-out: EC50, inhibition of SARS-CoV-2 pseudovirus entry in Vero cells; for Inhibition of pseudovirus entry in Vero cells (in words): cathepsin-dependent endosomal pathway
[17] = test system: Acinetobacter baumannii ATCC BAA1605; experiment: MIC against Gram-negative strain; conditions: Acinetobacter baumannii ATCC BAA1605
[18] = test system: VeroE6 cells; experiment: Cytotoxicity in mock-infected VeroE6 cells (XTT); format: cell-based, African green monkey
[19] = test system: Calu-3 cells; experiment: Cytotoxicity in mock-infected Calu-3 cells (XTT); conditions: read-out: CC50, Calu-3 cells, three days
[20] = biological target: T1, human recombinant cathepsin L (Homo sapiens, UniProt P07711); experiment: biochemical; format: biochemical
T1 construct: made in house; host or cells: Escherichia coli
T1 sequence (P07711 114-333): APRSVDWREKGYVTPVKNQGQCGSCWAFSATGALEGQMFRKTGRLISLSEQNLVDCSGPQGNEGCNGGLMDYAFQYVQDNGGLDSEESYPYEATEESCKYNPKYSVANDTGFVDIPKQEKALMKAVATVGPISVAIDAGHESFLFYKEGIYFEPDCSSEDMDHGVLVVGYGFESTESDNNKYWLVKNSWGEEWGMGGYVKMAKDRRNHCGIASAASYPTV
Description: Cathepsin L inhibition was assessed as reported. Briefly, human recombinant cathepsin L was expressed in Escherichia coli[33]. Enzymatic activity was determined in 100 mM acetate buffer (pH 5.5) containing 0.1% PEG 8000, 5 mM cysteine and 1.5 mM EDTA. The enzyme was first activated in assay buffer for 5 min at 37 °C, after which it was added to the wells of a black microplate containing the Z-Phe-Arg-AMC substrate (Bachem) and compounds. Formation of the fluorescent cleavage product was monitored for 50 min at 37 °C, using a Tecan Infinit M1000 spectrofluorimeter set at 460 nm emission and 380 nm excitation wavelength. All assay mixtures contained 5% (v/v) DMSO and 0.01% Triton X-100 to prevent false-positive inhibition due to formation of compound aggregates. All measurements were performed in triplicate and repeated twice. The relative inhibition was calculated using the equation: Relative inhibition (%) = 100(1 − vi/vo), where vi and vo designate the reaction velocities in the presence and absence of inhibitor, respectively. IC50 values were determined from nine data points at different inhibitor concentrations.

[21] = Cytotoxicity in mock-infected HEL cells (MTS); format: cell-based, human; conditions: human; mock-infected HEL cells, MTS, mean of 2–3 tests
[22] = Cytotoxicity in mock-infected VeroE6 cells (XTT); format: cell-based, African green monkey; conditions: African green monkey; mock-infected Vero E6 cells, three days, XTT
[23] = in vitro; conditions: human
[24] = Severe acute respiratory syndrome-related coronavirus

For teicoplanin [reference compound], the “Activity against SARS-CoV-2 in Calu-3 cells (in words)” value [1] was “inactive; also recorded: does not inhibit”, the EC50 [1] was greater than 100 µM and the CC50 [2] was greater than 100 µM. For the same compound, the “3CL^Pro % inhibition at 200 µM” value ([3]; at 200 µM) was 13 ± 8%, the MIC [4] was 256 µg/mL and the MIC [5] was 256 µg/mL. For the same compound, the EC50 [6] was 16 ± 1.7 µM, the EC50 [7] was greater than 125 µM and the “Inhibition of pseudovirus entry in A549-AT cells (in words)” value [7] was “inactive”. The “Average MIC value” ([8]; S. haemolyticus mecA, 6 strains) was 112 µg/mL, the MIC value ([8]; S.haemolyticus DALB_R1, mecA) was 128 µg/mL and the MIC value ([8]; S.haemolyticus DALB_R2, mecA) was 256 µg/mL. It also gave an MIC value ([8]; S.haemolyticus DALB_R3, mecA) of 32 µg/mL, an MIC value ([8]; S.haemolyticus DALB_R4, mecA) of 64 µg/mL and an MIC value ([8]; S.haemolyticus DALB_R5, mecA) of 128 µg/mL. The MIC value ([8]; S.haemolyticus ORI_R1, mecA) was 64 µg/mL, the MIC value ([9]; S.pyogenes H232) was 0,03125 µg/ml and the MIC value ([9]; S.pyogenes H550) was 0,25 µg/ml. For the same compound, the MIC value ([9]; S.pyogenes H578) was 0,25 µg/ml, the MIC value ([10]; S. aureus 73OL, MRSA) was 0,5 µg/ml and the MIC value ([10]; S. aureus 214OL, MRSA) was 2 µg/mL. The MIC value ([10]; S. aureus 1041OL, MRSA) was 1 µg/mL, the MIC value ([10]; S. aureus A6918, MRSA) was 1 µg/mL and the MIC value ([10]; S. aureus A6919, MRSA) was 0,5 µg/ml. The MIC value ([10]; S. aureus ATCC29213, MSSA) was 0,5 µg/ml, the “Average MIC value” ([10]; S. aureus CA-MRSA, 1 strain) was 0.125 µg/mL and the “Average MIC value” ([10]; S. aureus MRSA, 7 strains) was 1.43 µg/mL. The MIC value ([10]; S. aureus MSSA476, MSSA) was 0,25 µg/ml, the “Average MIC value” ([10]; S. aureus MSSA, 4 strains) was 0.375 µg/mL and the MIC value ([10]; S. aureus Mu50, MRSA) was 4 µg/mL. For the same compound, the MIC value ([10]; S. aureus N315, MRSA) was 1 µg/mL, the MIC value ([10]; S. aureus Newman, MSSA) was 0,25 µg/ml and the MIC value ([10]; S. aureus SA564, MSSA) was 0,5 µg/ml. The MIC value ([10]; S. aureus USA300, CA-MRSA) was 0,125 µg/ml, the “Average MIC value” ([11]; E. faecalis VAN^R,TEI^R/VanA, 1 strain) was greater than 64 µg/mL and the “Average MIC value” ([11]; E. faecalis VAN^S, TEI^S, 2 strains) was 0.25 µg/mL. For the same compound, the MIC value ([11]; E.faecalis JH2-2) was 0,25 µg/ml, the MIC value ([11]; E.faecalis OG1RF) was 0,25 µg/ml and the MIC value ([11]; E.faecalis V583, VAN,TEI/VanA) was greater than 64 µg/mL. For the same compound, the MIC [12] was 256 µg/mL, the “Average MIC value” ([13]; S. epidermidis mecA, 6 strains) was 26.7 µg/mL and the MIC value ([13]; S.epidermidis ORI_R1, mecA) was 32 µg/mL. It also gave an MIC value ([13]; S.epidermidis ORI_R2, mecA) of 16 µg/mL, an MIC value ([13]; S.epidermidis ORI_R3, mecA) of 32 µg/mL and an MIC value ([13]; S.epidermidis ORI_R4, mecA) of 16 µg/mL. The MIC value ([13]; S.epidermidis TEI_R1, mecA) was 32 µg/mL, the MIC value ([13]; S.epidermidis TEI_R2, mecA) was 32 µg/mL and the “Average MIC value” ([14]; E. faecium VAN^R,TEI^R/VanA, 8 strains) was greater than 64 µg/mL. The “Average MIC value” ([14]; E. faecium VAN^S, TEI^S, 1 strain) was 0.5 µg/mL, the MIC value ([14]; E.faecium E335, VAN,TEI,LNZ/VanA) was greater than 64 µg/mL and the MIC value ([14]; E.faecium E355, VAN,TEI,LNZ/VanA) was greater than 64 µg/mL. For the same compound, the MIC value ([14]; E.faecium E832, VAN,TEI,LNZ/VanA) was greater than 64 µg/mL, the MIC value ([14]; E.faecium E854, VAN,TEI,LNZ/VanA) was greater than 64 µg/mL and the MIC value ([14]; E.faecium E859, VAN,TEI,LNZ/VanA) was greater than 64 µg/mL. It also gave an MIC value ([14]; E.faecium E1114, VAN,TEI,LNZ/VanA) greater than 64 µg/mL, an MIC value ([14]; E.faecium E1131, VAN,TEI,LNZ/VanA) greater than 64 µg/mL and an MIC value ([14]; E.faecium E1132, VAN,TEI,LNZ/VanA) greater than 64 µg/mL. The MIC value ([14]; E.faecium TX0016) was 0,5 µg/ml, the “Activity against HCoV-229E CPE (in words)” value [15] was “inactive” and the EC50 [15] was greater than 100 µM. The EC50 [16] was 21 ± 5 µM, the “Inhibition of pseudovirus entry in Vero cells (in words)” value [16] was “moderately active” and the MIC [17] was 128 µg/mL. For the same compound, the CC50 ([18]; mock-infected Vero E6 cells, three days, XTT) was greater than 100 µM, the CC50 [19] was greater than 100 µM and the “Cathepsin L inhibition (in words)” value [20] was “inactive”. The “Cathepsin L inhibition at 50 µM” value ([20]; at 50 µM) was 5% at 50 µM.
In the case of `O=C(O)CCC(F)(F)C(F)(F)C(F)(F)C(F)(F)C(F)(F)C(F)(F)C(F)(F)C(F)(F)F` [Compound 14], the “Activity against SARS-CoV-2 in Calu-3 cells (in words)” value [1] is reported as “active”, the EC50 ([1]; Severe acute respiratory syndrome coronavirus 2, 72 h) is reported as 46 ± 1.9 µM and the CC50 [21] is reported as greater than 100 µM. The inhibition at 200 µM [3] was 12 ± 2%, the EC50 ([6]; Severe acute respiratory syndrome coronavirus 2, Vero C1008, 72 h) was 19 ± 1.5 µM and the “Reduction of the CPE of SARS-CoV-2 in VeroE6 cells (in words)” value ([6]; VeroE6 cells) was “did show antiviral activity”. For the same compound, the “Inhibition of pseudovirus entry in A549-AT cells (in words)” value [7] was “inhibited both entry routes”, the EC50 [7, 24] was 24 ± 6 µM and the EC50 ([15]; Human coronavirus 229E) was 69 µM. For the same compound, the EC50 [16, 24] was 13 ± 5 µM, the “Inhibition of pseudovirus entry in Vero cells (in words)” value [16] was “inhibited both entry routes” and the “Toxicity in VeroE6 cells (in words)” value ([18]; VeroE6 cells) was “quite toxic”. The CC50 [22] was 39 ± 1.4 µM, the CC50 [23] was roughly 53 µM and the IC50 ([20]; pH 5.5, Z-Phe-Arg-AMC substrate, read-out: Cathepsin L IC50) was greater than 500 µM.
